According to patent US20090054332A1, “THOMBOPOIETIN PEPTIDE CONJUGATES” (CONJUCHEM BIOTECHNOLOGIES, INC., priority 2007, published 2009):
Where no end group is shown, it is not given here. Side-chain parts run from the residue outwards. [ ]: non-standard residue; d: D form. The star is where a group is joined. K(MPA) = lysine carrying the MPA reactive group; Propanoyl(3-maleimido) = O=C1C=CC(=O)N1CCC(=O)*; MPA = maleimido propionic acid reactive group; Aoc = NCCCCCCCC(=O)O

Legend:
Platelet count = assay: In vivo potency: platelet count after a single injection in CD-1 mice; parameters: species or system mouse; conditions: female CD-1 mice, 10 nmol/kg, 6 days postdose vs prior to dosing, n=4/group
Experimental: Ten to twelve-week old female CD-1 mice were administered with a single injection of the TPO derivatives indicated below at 10 nmol/kg (n=4/group). The DAC™ compounds in Table 4 are variants of TPO peptides modified to include an MPA reactive group, thereby forming an MPA-modified unconjugated peptides. The DAC™ compounds in Table 4 were administered intravenously. Albumin conjugates of the DAC™ compounds (also referred to herein as Preformed Conjugates (PC)) were injected subcutaneously. For each mouse, a blood sample was collected prior to dosing and 6 days postdose via the […]. Platelet counts were measured using an ABC Vet analyzer using standard procedures.
Platelet count fold increases are reported in Table 4 and 5 for MPA-modified TPO peptide and the albumin TPO conjugate, respectively.

[1] = phase I trials, adult and pediatric populations; cited from earlier work
[2] = single subcutaneous injection of preformed albumin conjugate

Row | Substance | Platelet Count Fold Increase (Platelet count; single intravenous injection) [fold] | other results
1 | (reactive group)-GGGGG-ARAALWQRLTPGEI-GGGGGGGG-ARAALWQRLTPGEI ({Propanoyl(3-maleimido)}-GGGGGARAALWQRLTPGEIGGGGGGGGARAALWQRLTPGEI) [MPA-modified form of SEQ ID NO: 125, unconjugated DAC compound] | <3 | 
2 | (reactive group)-GGGGG-ARAALWQRLTPGEI-GGGGGGGG-IEGPTLRQWLAARA ({Propanoyl(3-maleimido)}-GGGGGARAALWQRLTPGEIGGGGGGGGIEGPTLRQWLAARA) [MPA-modified form of SEQ ID NO: 121, unconjugated DAC compound] | <3 | 
3 | (reactive group)-GGGGG-IEGPTLRQWLAARA-GGGGGGGG-ARAALWQRLTPGEI ({Propanoyl(3-maleimido)}-GGGGGIEGPTLRQWLAARAGGGGGGGGARAALWQRLTPGEI) [MPA-modified form of SEQ ID NO: 117, unconjugated DAC compound] | <3 | 
4 | (reactive group)-GGGGG-IEGPTLRQWLAARA-GGGGGGGG-IEGPTLRQWLAARA ({Propanoyl(3-maleimido)}-GGGGGIEGPTLRQWLAARAGGGGGGGGIEGPTLRQWLAARA) [MPA-modified form of SEQ ID NO: 168, unconjugated DAC compound] | 5.1 | 
5 | (reactive group)-GGGGG-IEGPTLRQWLAARA-GGGGGGGG-LQGPTLRAWRAGMA ({Propanoyl(3-maleimido)}-GGGGGIEGPTLRQWLAARAGGGGGGGGLQGPTLRAWRAGMA) [MPA-modified form of SEQ ID NO: 185, unconjugated DAC compound] | <3 | 
6 | (reactive group)-GGGGG-LQGPTLRAWRAGMA-GGGGGGGG-IEGPTLRQWLAARA ({Propanoyl(3-maleimido)}-GGGGGLQGPTLRAWRAGMAGGGGGGGGIEGPTLRQWLAARA) [MPA-modified form of SEQ ID NO: 184, unconjugated DAC compound] | <3 | 
7 | Ac-ARAALWQRLTPGEI-GGGGGGGG-ARAALWQRLTPGEI-K(OA-reactive group) (Ac-ARAALWQRLTPGEIGGGGGGGGARAALWQRLTPGEIK([Aoc-Propanoyl(3-maleimido)])) [MPA-modified form of SEQ ID NO: 127, unconjugated DAC compound] | <3 | 
8 | Ac-ARAALWQRLTPGEI-GGGGGGGG-IEGPTLRQWLAARAI-K(OA-reactive group) (Ac-ARAALWQRLTPGEIGGGGGGGGIEGPTLRQWLAARAIK([Aoc-Propanoyl(3-maleimido)])) [MPA-modified form of SEQ ID NO: 123, unconjugated DAC compound] | <3 | 
9 | Albumin-conjugate of SEQ ID NO: 168: Preformed albumin conjugate (PC) of the MPA-modified TPO peptide of SEQ ID NO: 168 ({Propanoyl(3-maleimido)}-GGGGGIEGPTLRQWLAARAGGGGGGGGIEGPTLRQWLAARA; also: MPA-linked preformed albumin conjugate, site not given here) |  | Platelet Count Fold Increase (Platelet count; [2]): 4.3 fold
10 | Albumin-conjugate of SEQ ID NO: 169: Preformed albumin conjugate (PC) of the MPA-modified TPO peptide of SEQ ID NO: 169 (IEGPTLRQWLAARAGGGGGGGGIEGPTLRQWLAARA-{Aoc-Aoc-MPA}; also: MPA-linked preformed albumin conjugate, site not given here) |  | Platelet Count Fold Increase (Platelet count; [2]): 3.8 fold
11 | Albumin-conjugate of SEQ ID NO: 170: Preformed albumin conjugate (PC) of the MPA-modified TPO peptide of SEQ ID NO: 170 (IEGPTLRQWLAARAGGGGGGGGIEGPTLRQWLAARAK[Aoc]; not fully specified; printed as IEGPTLRQWLAARA-GGGGGGGG-IEGPTLRQWLAARA-K-OA-; also: MPA-linked preformed albumin conjugate, site not given here) |  | Platelet Count Fold Increase (Platelet count; [2]): 4.4 fold
12 | IEGPTLRQWLAARA-GGGGGGGG-IEGPTLRQWLAARA-(OA)-K-(reactive group) (IEGPTLRQWLAARAGGGGGGGGIEGPTLRQWLAARA-{Aoc-K(MPA)}) [MPA-modified form of SEQ ID NO: 190, unconjugated DAC compound] | 5.0 | 
13 | IEGPTLRQWLAARA-GGGGGGGG-IEGPTLRQWLAARA-K-OA-OA-(reactive group) (IEGPTLRQWLAARAGGGGGGGGIEGPTLRQWLAARAK-{Aoc-Aoc-MPA}; not fully specified) [MPA-modified form of SEQ ID NO: 170, unconjugated DAC compound] | 4.7 | 
14 | IEGPTLRQWLAARA-GGGGGGGG-IEGPTLRQWLAARA-OA-OA-K-(reactive group) (IEGPTLRQWLAARAGGGGGGGGIEGPTLRQWLAARA-{Aoc-Aoc-K(MPA)}) [MPA-modified form of SEQ ID NO: 169, unconjugated DAC compound] | 4.4 | 
15 | LQGPTLRAWRAGMA-GGGGGGGG-IEGPTLRQWLAARA-(OA)-K-(reactive group) (LQGPTLRAWRAGMAGGGGGGGGIEGPTLRQWLAARA-{Aoc-K(MPA)}) [MPA-modified form of SEQ ID NO: 191, unconjugated DAC compound] | <3 | 
16 | rhTPO: full length, glycosylated molecule known as recombinant human thrombopoietin |  | Safety of administration [1]: safe administration
